Here are results for 1 molecule from patent US20210369680A1, “METHODS OF TREATING DISEASES AND DISORDERS RESULTING FROM BETA CORONAVIRUS INFECTION” (T3D Therapeutics, Inc., priority 2020, published 2021).

Assay in all cases: Human PPAR activation, transient transfection study in transfected CV-1 cells
Common to all, as to format: cell-based

One assay has as its target T1, human PPARδ (Homo sapiens, UniProt Q03181).
T1 construct: expressed in transfected cells; host or cells: CV-1 cells
T1 sequence (Q03181 1-441): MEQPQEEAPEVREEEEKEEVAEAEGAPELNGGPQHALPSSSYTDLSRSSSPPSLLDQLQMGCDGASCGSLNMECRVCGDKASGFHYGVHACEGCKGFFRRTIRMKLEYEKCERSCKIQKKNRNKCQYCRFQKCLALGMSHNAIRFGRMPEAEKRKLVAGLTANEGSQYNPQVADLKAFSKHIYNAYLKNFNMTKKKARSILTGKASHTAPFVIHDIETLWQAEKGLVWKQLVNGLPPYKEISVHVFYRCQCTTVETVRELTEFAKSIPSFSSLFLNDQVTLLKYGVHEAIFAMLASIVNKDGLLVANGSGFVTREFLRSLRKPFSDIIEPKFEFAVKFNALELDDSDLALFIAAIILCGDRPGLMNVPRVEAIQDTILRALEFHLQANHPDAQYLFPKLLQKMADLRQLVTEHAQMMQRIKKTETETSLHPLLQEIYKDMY

The target of a further assay is T2, human PPARα (Homo sapiens, UniProt Q07869).
T2 construct: expressed in transfected cells; host or cells: CV-1 cells
T2 sequence (Q07869 1-468): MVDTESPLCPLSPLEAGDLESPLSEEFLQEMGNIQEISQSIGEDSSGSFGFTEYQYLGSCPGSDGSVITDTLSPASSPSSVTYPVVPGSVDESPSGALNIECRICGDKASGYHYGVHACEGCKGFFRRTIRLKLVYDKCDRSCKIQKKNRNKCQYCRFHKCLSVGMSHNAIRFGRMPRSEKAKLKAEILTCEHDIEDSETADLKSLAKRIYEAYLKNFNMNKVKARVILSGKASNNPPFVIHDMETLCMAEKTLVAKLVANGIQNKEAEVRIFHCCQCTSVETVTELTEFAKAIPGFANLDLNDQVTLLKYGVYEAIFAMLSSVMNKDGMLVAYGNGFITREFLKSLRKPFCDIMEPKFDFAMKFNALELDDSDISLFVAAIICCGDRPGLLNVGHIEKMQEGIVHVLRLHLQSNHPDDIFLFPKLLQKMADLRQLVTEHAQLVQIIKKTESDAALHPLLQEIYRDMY
The text has this:
(§1) Human PPAR Activation by Compound of Example 11 in Transient Transfection Study
(§2) Table 2 summarizes the results of studies performed in transfected CV-1 cells with three different lots of Compound of Example 11. […].

A further assay has as its target T3, human PPARγ (Homo sapiens, UniProt P37231).
T3 construct: expressed in transfected cells; host or cells: CV-1 cells
T3 sequence (P37231 1-505): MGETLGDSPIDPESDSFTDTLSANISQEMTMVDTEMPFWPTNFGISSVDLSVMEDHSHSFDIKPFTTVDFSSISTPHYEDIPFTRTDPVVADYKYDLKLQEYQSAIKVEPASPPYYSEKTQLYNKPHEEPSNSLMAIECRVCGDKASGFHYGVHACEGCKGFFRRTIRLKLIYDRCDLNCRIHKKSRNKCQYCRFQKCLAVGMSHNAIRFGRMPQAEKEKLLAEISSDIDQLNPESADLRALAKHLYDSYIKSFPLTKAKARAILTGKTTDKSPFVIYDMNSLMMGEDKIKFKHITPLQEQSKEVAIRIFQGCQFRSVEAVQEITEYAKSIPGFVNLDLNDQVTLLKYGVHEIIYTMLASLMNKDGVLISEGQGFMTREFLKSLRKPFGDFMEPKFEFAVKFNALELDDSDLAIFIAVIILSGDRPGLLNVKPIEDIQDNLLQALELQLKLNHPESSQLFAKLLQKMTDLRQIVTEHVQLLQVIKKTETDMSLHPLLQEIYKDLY
Description: as §1, §2

Take `CCc1oc(-c2ccc(OC)cc2)nc1CCOc1ccc2c(c1)CC[C@H]2CC(=O)[O-].[Na+]` [Example 11, Sodium (S)-2-(5-(2-(5-ethyl-2-(4-methoxyphenyl)oxazol-4-yl)ethoxy)-2,3-dihydro-1H-inden-1-yl)acetate]: on human PPARδ, the “Peak effect PPARδ” value was 17.68, the “greater potency in activating human PPARδ over human PPARγ” value was 15 fold and the “selectivity over the human PPAR alpha subtype” value is given as around 30 fold. At human PPARδ (CV-1, read-out: Average % maximal response PPARδ), the Emax was 76%. On human PPARα, the “Peak effect PPARα” value was determined as 1.87. The Emax at human PPARα (CV-1, average of three lots, read-out: Average % maximal response PPARα) was found to be 49%. Besides, the “Average % maximal response PPARα” value on human PPARα (average of three lots) was “significantly reduced”. Also, the “Peak effect PPARγ” value on human PPARγ worked out at 29.49. Also, the Emax at human PPARγ (CV-1, read-out: Average % maximal response PPARγ) was determined as 74%.
